From ChEMBL document CHEMBL5576135, “Discovery of Indolo[3,2-c]isoquinoline Derivatives as Novel Top1/2 Dual Inhibitors with Orally Efficacious Antitumor Activity and Low Toxicity” (J Med Chem, 2024)
Activity calls are given as the source filed them. No cut-off for these calls is given here.

What was measured:
NCI-H446 [1] = assay: Induction of DNA damage in human NCI-H446 cells assessed as increase in intracellular ROS level at 4 to 8 uM incubated for 6 hrs by DCFHDA probe based fluorescence microscopic analysis; type: functional, cell-based; conditions: dose 4-8 µM
MCF7 = assay: Antiproliferative activity against human MCF7 cells assessed as inhibition of cell growth incubated for 96 hrs by MTT based ELISA; type: functional; conditions: MCF7, 96 h
NCI-H1650 = assay: Antiproliferative activity against human NCI-H1650 cells assessed as inhibition of cell growth incubated for 96 hrs by MTT based ELISA; type: functional; conditions: NCI-H1650, 96 h
[2] = Toxicity in Kunming mouse assessed as change in organ coefficient of heart at 100 mg/kg,po administration for 2 weeks; type: organism-based; conditions: in vivo, 336 h
[3] = Toxicity in Kunming mouse assessed as lethal dose at po administration for 2 weeks; type: organism-based; conditions: in vivo
[4] = Cmax in ICR mouse at 10 mg/kg,po measured upto 24 hrs by LC-MS/MS analysis; type: ADME, organism-based; conditions: in vivo
A549 = assay: Antiproliferative activity against human A549 cells assessed as inhibition of cell growth incubated for 96 hrs by MTT based ELISA; type: functional; conditions: A549, 96 h
HCT-116 [5] = assay: Antiproliferative activity against human HCT-116 cells assessed as inhibition of cell growth incubated for 96 hrs by MTT based ELISA; type: functional; conditions: HCT-116, 96 h
[6] = target: T1, DNA topoisomerase 1 (Homo sapiens) (UniProt P11387); assay: Inhibition of Topoisomerase I (unknown origin) using pBR322 DNA as substrate at 50 uM incubated for 15 mins by EtBr staining based agarose gel electrophoresis method
T1 sequence (whole entry): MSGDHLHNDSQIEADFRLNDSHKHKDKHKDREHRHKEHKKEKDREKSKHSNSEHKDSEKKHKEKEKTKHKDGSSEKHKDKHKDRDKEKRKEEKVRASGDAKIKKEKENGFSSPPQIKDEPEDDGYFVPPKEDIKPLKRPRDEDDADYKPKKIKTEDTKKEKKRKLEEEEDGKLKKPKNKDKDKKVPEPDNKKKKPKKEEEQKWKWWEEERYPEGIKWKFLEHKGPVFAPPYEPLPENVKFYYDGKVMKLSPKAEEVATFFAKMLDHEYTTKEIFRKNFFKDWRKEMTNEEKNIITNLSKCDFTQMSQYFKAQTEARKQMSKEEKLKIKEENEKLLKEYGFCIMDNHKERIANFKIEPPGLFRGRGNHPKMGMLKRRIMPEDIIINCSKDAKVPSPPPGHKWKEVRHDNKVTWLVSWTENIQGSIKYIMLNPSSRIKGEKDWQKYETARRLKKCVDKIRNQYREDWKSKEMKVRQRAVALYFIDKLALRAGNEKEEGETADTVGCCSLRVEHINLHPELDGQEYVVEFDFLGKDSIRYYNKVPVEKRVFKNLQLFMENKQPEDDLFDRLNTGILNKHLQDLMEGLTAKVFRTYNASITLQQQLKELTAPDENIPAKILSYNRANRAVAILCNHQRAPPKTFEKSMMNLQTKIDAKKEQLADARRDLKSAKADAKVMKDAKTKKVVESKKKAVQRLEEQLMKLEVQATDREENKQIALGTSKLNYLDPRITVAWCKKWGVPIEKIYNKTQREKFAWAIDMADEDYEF

[7] = Half life in ICR mouse at 10 mg/kg,po measured upto 24 hrs by LC-MS/MS analysis; type: ADME, organism-based; conditions: in vivo
NCI-H446 [8] = assay: Antiproliferative activity against human NCI-H446 cells assessed as inhibition of cell growth incubated for 96 hrs by MTT based ELISA; type: functional; conditions: NCI-H446, 96 h
NCI-H1975 = assay: Antiproliferative activity against human NCI-H1975 cells assessed as inhibition of cell growth incubated for 96 hrs by MTT based ELISA; type: functional; conditions: NCI-H1975, 96 h
[9] = Toxicity in Kunming mouse assessed as change in serum AST level at 100 mg/kg,po administration for 2 weeks; type: organism-based; conditions: in vivo, 336 h
[10] = Antiproliferative activity against human BEAS-2B cells assessed as inhibition of cell growth incubated for 96 hrs by MTT based ELISA; type: toxicity
Cell membrane = assay: Induction of mitochondrial membrane potential loss in human NCI-H446 cells at 8 uM incubated for 24 hrs by JC-1 staining based flow cytometry; type: cell membranes
[11] = Toxicity in Kunming mouse assessed as change in serum blood urea nitrogen level at 100 mg/kg,po administration for 2 weeks; type: organism-based; conditions: in vivo, 336 h
NCI-H446 [12] = assay: Induction of cell cycle arrest in human NCI-H446 cells assessed as accumulation of cells at S phase at 1 to 2 uM incubated for 48 hrs by propidium iodide/RNase A staining based flow cytometry; type: functional; conditions: dose 1-2 µM
[13] = target: DNA topoisomerase 2-alpha (Homo sapiens) (UniProt P11388); assay: Inhibition of Topoisomerase 2 (unknown origin) using pBR322 DNA as substrate at 50 uM incubated for 15 mins by EtBr staining based agarose gel electrophoresis method
Sequence of DNA topoisomerase 2-alpha (Homo sapiens) (P11388 whole entry): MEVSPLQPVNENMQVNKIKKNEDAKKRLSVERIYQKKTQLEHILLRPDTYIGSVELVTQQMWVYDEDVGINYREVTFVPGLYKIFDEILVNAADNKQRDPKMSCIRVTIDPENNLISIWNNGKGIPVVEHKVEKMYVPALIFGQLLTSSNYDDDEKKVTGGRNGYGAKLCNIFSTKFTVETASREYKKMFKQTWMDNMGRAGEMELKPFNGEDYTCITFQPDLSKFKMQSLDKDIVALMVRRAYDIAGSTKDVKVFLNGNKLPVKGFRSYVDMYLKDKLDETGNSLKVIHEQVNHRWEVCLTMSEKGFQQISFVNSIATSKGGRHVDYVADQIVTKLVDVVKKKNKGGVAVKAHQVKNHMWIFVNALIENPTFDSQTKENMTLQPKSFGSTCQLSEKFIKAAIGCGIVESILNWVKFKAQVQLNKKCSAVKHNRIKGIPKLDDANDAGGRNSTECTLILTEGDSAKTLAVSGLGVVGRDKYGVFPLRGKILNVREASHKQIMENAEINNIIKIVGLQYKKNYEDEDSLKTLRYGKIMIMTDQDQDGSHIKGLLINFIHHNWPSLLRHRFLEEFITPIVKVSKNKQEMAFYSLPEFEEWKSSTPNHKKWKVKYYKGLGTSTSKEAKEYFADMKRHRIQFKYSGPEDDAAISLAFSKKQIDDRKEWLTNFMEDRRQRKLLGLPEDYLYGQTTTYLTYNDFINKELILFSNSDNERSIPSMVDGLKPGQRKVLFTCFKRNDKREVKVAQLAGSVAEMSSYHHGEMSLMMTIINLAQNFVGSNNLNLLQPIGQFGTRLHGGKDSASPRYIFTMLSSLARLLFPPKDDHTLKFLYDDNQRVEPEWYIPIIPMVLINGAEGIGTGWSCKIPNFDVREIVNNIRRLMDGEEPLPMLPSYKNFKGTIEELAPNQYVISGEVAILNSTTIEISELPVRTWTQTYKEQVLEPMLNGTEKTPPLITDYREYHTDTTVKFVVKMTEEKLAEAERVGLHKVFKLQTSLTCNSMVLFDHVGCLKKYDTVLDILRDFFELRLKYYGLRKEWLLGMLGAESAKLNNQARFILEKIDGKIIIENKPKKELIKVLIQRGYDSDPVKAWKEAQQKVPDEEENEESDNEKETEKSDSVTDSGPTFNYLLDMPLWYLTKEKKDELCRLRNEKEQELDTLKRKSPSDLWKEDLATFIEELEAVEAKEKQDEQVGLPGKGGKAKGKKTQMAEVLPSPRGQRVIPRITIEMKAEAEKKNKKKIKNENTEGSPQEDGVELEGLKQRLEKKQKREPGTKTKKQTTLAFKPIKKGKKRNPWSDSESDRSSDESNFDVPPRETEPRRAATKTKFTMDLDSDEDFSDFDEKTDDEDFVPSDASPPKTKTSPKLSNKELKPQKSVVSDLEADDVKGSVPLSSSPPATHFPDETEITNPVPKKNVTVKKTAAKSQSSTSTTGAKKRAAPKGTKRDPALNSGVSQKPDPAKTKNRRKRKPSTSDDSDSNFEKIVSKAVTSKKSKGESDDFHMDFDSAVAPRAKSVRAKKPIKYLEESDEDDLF

NCI-H446 [14] = assay: Inhibition of colony formation in human NCI-H446 cells at 1 uM incubated for 24 hrs by crystal violet staining based analysis relative to control; type: functional
NCI-H446 [15] = assay: Induction of DNA damage in human NCI-H446 cells assessed as increase in intracellular gamma-H2AX level at 2 to 8 uM incubated for 48 hrs by Western blotting analysis; type: functional, cell-based; conditions: dose 2-8 µM
[16] = target: DNA topoisomerase 2-alpha (Homo sapiens) (UniProt P11388); assay: Inhibition of Topoisomerase 2 (unknown origin) using pBR322 DNA as substrate at 10 uM incubated for 15 mins by EtBr staining based agarose gel electrophoresis method
[17] = Toxicity in Kunming mouse assessed as change in serum creatinine level at 100 mg/kg,po administration for 2 weeks; type: organism-based; conditions: in vivo, 336 h
NCI-H446 [18] = assay: Inhibition of cell migration in human NCI-H446 cells at 2 uM incubated for 48 hrs by phase-contrast microscopic analysis relative to control; type: functional
[19] = target: T1, DNA topoisomerase 1 (Homo sapiens); assay: Inhibition of Topoisomerase I (unknown origin) using pBR322 DNA as substrate at 10 uM incubated for 15 mins by EtBr staining based agarose gel electrophoresis method
HCT-116 [20] = assay: Antitumor activity against human HCT-116 cells xenografted with BALB/c mouse assessed as tumor growth inhibition at 100 mg/kg,po administrated once daily for 21 days relative to control; type: functional; conditions: HCT-116, 504 h, time 21 day, read-out: TGI
[21] = target: T1, DNA topoisomerase 1 (Homo sapiens); assay: Inhibition of Topoisomerase I (unknown origin) using pBR322 DNA as substrate at 2 uM incubated for 15 mins by EtBr staining based agarose gel electrophoresis method
HCT-116 [22] = assay: Antitumor activity against human HCT-116 cells xenografted with BALB/c mouse assessed as tumor growth inhibition by measuring T/C ratio at 100 mg/kg,po administrated once daily for 21 days; type: functional; conditions: time 21 day
NCI-H446 [23] = assay: Antitumor activity against human NCI-H446 cells xenografted with BALB/c mouse assessed as tumor growth inhibition at 100 mg/kg,po administrated once daily for 21 days relative to control; type: functional; conditions: NCI-H446, 504 h, time 21 day, read-out: TGI
NCI-H446 [24] = assay: Antitumor activity against human NCI-H446 cells xenografted with BALB/c mouse assessed as tumor growth inhibition by measuring T/C ratio at 50 mg/kg,po administrated once daily for 21 days; type: functional; conditions: time 21 day

SMILES: COc1ccc2c(c1)c1ncc3ccccc3c1n2CCCC(=O)NO
- Activity (NCI-H446 [1]): Active
- IC50 (MCF7): 670 nM
- IC50 (NCI-H1650): 1020 nM
- Activity [2]: Non-Toxic
- LD50 at 336 h [3]: > 1000 mg/kg
- Cmax [4]: 109 ng/mL
- IC50 (A549): 2510 nM
- IC50 (HCT-116 [5]): 530 nM
- inhibition [6]: Active
- half-life [7]: 1.15 h
- IC50 (NCI-H446 [8]): 120 nM
- IC50 (NCI-H1975): 960 nM
- Activity [9]: Non-Toxic
- IC50 at 96 h [10]: > 10000 nM
- Activity (Cell membrane): Active
- Activity [11]: Non-Toxic
- Activity (NCI-H446 [12]): Active
- inhibition [13]: Active
- inhibition at 1 µM (NCI-H446 [14]): > 90%
- Activity (NCI-H446 [15]): Active
- inhibition [16]: Active
- Activity [17]: Non-Toxic
- inhibition at 2 µM (NCI-H446 [18]): 73.2%
- inhibition [19]: Active

SMILES: CN(C)CCCn1c2cc3c(cc2c2ncc4ccccc4c21)OCO3
- Activity (NCI-H446 [1]): Active
- IC50 (MCF7): 350 nM
- IC50 (NCI-H1650): 880 nM
- Activity [2]: Non-Toxic
- LD50 at 336 h [3]: > 1000 mg/kg
- Cmax [4]: 284 ng/mL
- IC50 (A549): 1100 nM
- IC50 (HCT-116 [5]): 210 nM
- inhibition in vivo at 100 mg/kg (HCT-116 [20]): 77.4%
- inhibition [6]: Active
- half-life [7]: 1.66 h
- IC50 (NCI-H446 [8]): 90 nM
- IC50 (NCI-H1975): 740 nM
- Activity [9]: Non-Toxic
- inhibition [21]: Active
- IC50 at 96 h [10]: 9570 nM
- T/C (HCT-116 [22]): 18%
- Activity (Cell membrane): Active
- Activity [11]: Non-Toxic
- inhibition in vivo at 100 mg/kg (NCI-H446 [23]): 66.1%
- Activity (NCI-H446 [12]): Active
- inhibition [13]: Active
- inhibition at 1 µM (NCI-H446 [14]): > 90%
- T/C (NCI-H446 [24]): 52.3%
- Activity (NCI-H446 [15]): Active
- inhibition [16]: Active
- Activity [17]: Non-Toxic
- inhibition at 2 µM (NCI-H446 [18]): 77.1%
- inhibition [19]: Active
